Measurements: US6509001B1, “Calcitonin receptor binding reagents” (Diatide, Inc., priority 1997, dated 2003)
Where two headings read alike, the source gives them in different places. Starred links: 1 amine or outer side, 2 acyl side, 3 side chain; linkers in the order of their positions; H or OH if unused. Positions of bridges follow the written chain, without caps; N, C: chain ends. Non-standard residues stand in square brackets, D forms with d. Residues, ends and D or L forms follow the SMILES beside them. *: point of attachment. X2 = NCCCC[C@H](NC(=O)[C@H](CS)NC(=O)[C@H](CCCCN)NC(=O)[C@@H](N)CNC(=O)C*)C(N)=O; X1 = NCCCC[C@H](NC(=O)[C@H](CS)NC(=O)CNC(=O)CNC(=O)C*)C(N)=O; hhCys(CH2CO) = O=C([C@H](CCCSCC(=O)[*:3])N[*:1])[*:2]; εLys = N[C@@H](CCCCN[*:1])C(=O)[*:2]; X3 = CC(C)(S)CNCCN(CCCCC*)CC(C)(C)S

How the values were obtained:
CT receptor [1] = molecular target: T1, CT receptor (Homo sapiens, UniProt P30988); assay: Displacement of 125I-CT from CT receptor in T-47D cell membranes; format: binding
T1 construct: Assays using microsomal membrane fractions of rat brain and T-47D cells; host or cells: T-47D
T1 sequence (P30988 25-474): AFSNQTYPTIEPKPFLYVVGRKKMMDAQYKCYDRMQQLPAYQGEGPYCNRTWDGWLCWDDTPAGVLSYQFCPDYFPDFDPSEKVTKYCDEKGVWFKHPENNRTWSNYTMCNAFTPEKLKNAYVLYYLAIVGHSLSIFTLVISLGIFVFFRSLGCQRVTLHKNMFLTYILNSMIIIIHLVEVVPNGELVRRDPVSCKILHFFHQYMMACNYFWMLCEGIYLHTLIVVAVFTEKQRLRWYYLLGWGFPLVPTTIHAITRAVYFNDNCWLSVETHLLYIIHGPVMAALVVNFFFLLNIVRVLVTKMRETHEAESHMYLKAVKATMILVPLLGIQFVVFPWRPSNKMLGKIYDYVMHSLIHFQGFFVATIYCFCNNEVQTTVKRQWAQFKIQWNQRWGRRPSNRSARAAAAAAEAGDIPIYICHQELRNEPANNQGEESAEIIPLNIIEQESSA
Protocol: (§1) Peptide reagents within the scope of the invention, or ReO complexed embodiments thereof, were tested using in vitro assays that measure their ability to inhibit the specific binding of ^125I-CT to the CT receptor, using membranes from rat brain or from a breast tumor cell line, and on whole cells from breast tumor cell lines, as described in detail below.
(§2) Assays using microsomal membrane fractions of rat brain and T-47D cells (obtained from the American Type Culture collection, Rockville, Md., ATCC Accession No. HTB-133) were used to identify analogs with high affinity for the CT receptor according to the method of Fisher et al. (1977, British J. Cancer 35: 777-784). Briefly, tissue was minced and homogenized. The membranes were washed several times, assayed for protein content and used in the binding assay. Membrane protein was incubated with 0.1 μCi of ^125I-salmon CT (Amersham, Cleveland, Ohio) in he presence or absence of varying concentrations of reagents to be tested. Both uncomplexed and ReO complexed reagents were tested. One hundred percent specific binding of ^125I-CT to the CT receptor was defined as the difference between total ^125I-CT binding and nonspecific binding of ^125I-CT measured in the presence of a receptor-saturating concentration (1 μM) of excess unlabeled salmon CT (Sigma, St. Louis, Mo.).

CT receptor [2] = assay: Displacement of 125I-CT from CT receptor in rat brain membranes; format: binding; details: displacement of 125I-CT (Table III)
Protocol: as §1, §2

[3] = Biodistribution of 99mTc-CT peptide, T-47D tumor in nude mouse; format: in vivo; details: 0.025 mCi, total radioactivity, 99mTc-labeled peptide; for tissue uptake dose at […]: 90 minutes
Source text: (§3) Breast cancer cell lines were screened for receptor expression and the best cell lines chosen for xenograft implantation in immune deficient mice. These tumor models were used to evaluate the tumor targeting potential in vivo of the high affinity peptides identified in the in vitro assays above.
(§4) CT receptor expressing breast cancer cells (T47D and MCF-7) were implanted into immune deficient mice or Sprague-Dawley rats and allowed to grow tumors. For testing new ^99mTc-CT peptides, tumor-bearing mice or rats were injected with approximately 0.025 mCi at approximately 6 mCi/10 nmol peptide. The animals were cervically dislocated and imaged statically for 5 minutes using a gamma camera. The biodistribution of the ^99mTc-CT peptide was then determined by counting blood, tumor, target organs and muscle in a gamma counter along with standard aliquots of the injected dose. The time points for biodistribution were chosen to represent early, middle and late phases of ^99mTc-CT analog clearance. […] To assess the tumor imaging potential of selected analogs, the ratio of radioactivity in blood and various tissues were compared to that in tumor.

T-47D tumor = assay: as above; format: in vivo; details: 99mTc-labeled peptide, 90 minutes
Source text: as §3, §4

[4] = Biodistribution of 99mTc-CT peptide in rat; format: in vivo; details: 99mTc-labeled peptide; for tissue uptake dose at […] / tissue uptake at […]: 0.025 mCi; for tissue uptake dose at […]: 90 minutes; for tissue uptake at […]: 90 minutes post-injection
Protocol: as §4

[5] = T-47D membranes, displacement of 125I-CT (Table III)
[6] = T-47D membranes, displacement of 125I-CT (Table III), read-out: T-47D IC50

CC(C)C[C@H](NC(=O)[C@H](CCCCN)NC(=O)CNC(=O)[C@H](CC(C)C)NC(=O)[C@@H](NC(=O)[C@@H]1CCCSCC(=O)N[C@@H](CO)C(=O)N[C@@H](CC(N)=O)C(=O)N[C@@H](CC(C)C)C(=O)N[C@@H](CO)C(=O)N[C@@H]([C@@H](C)O)C(=O)N1)C(C)C)C(=O)N[C@@H](CO)C(=O)N[C@@H](CSCCCCCN(CCNCC(C)(C)S)CC(C)(C)S)C(=O)N[C@@H](CCC(=O)O)C(=O)N[C@@H](CC(C)C)C(=O)N[C@@H](Cc1c[nH]cn1)C(=O)N[C@@H](CCCCN)C(=O)N[C@@H](CC(C)C)C(=O)N[C@@H](CCC(N)=O)C(=O)N[C@H](C(=O)N[C@@H](Cc1ccc(O)cc1)C(=O)N1CCC[C@H]1C(=O)N[C@@H](CCCNC(=N)N)C(=O)N[C@H](C(=O)N[C@@H](CC(N)=O)C(=O)N[C@H](C(=O)NCC(=O)N[C@@H](CO)C(=O)NCC(=O)N[C@H](C(=O)N1CCC[C@H]1C(N)=O)[C@@H](C)O)[C@@H](C)O)[C@@H](C)O)[C@@H](C)O [Peptide 1] (SNLST[hhCys(CH2CO)]VLGKLSC(X3)ELHKLQTYPRTNTGSGTP-NH2; lactam N-6)
Ki (CT receptor [1]; [5]): 0.41 nM | IC50 (CT receptor [1]; [6]): 0.53 nM | IC50 (CT receptor [2]): 2.6 nM

CC(C)C[C@H](NC(=O)[C@H](CCCCN)NC(=O)CNC(=O)[C@H](CC(C)C)NC(=O)[C@@H](NC(=O)[C@@H]1CCCSCC(=O)N[C@@H](CO)C(=O)N[C@@H](CC(N)=O)C(=O)N[C@@H](CC(C)C)C(=O)N[C@@H](CO)C(=O)N[C@@H]([C@@H](C)O)C(=O)N1)C(C)C)C(=O)N[C@@H](CO)C(=O)N[C@@H](CCC(N)=O)C(=O)N[C@@H](CCC(=O)O)C(=O)N[C@@H](CC(C)C)C(=O)N[C@@H](Cc1c[nH]cn1)C(=O)N[C@@H](CCCCN)C(=O)N[C@@H](CC(C)C)C(=O)N[C@@H](CCC(N)=O)C(=O)N[C@H](C(=O)N[C@@H](Cc1ccc(O)cc1)C(=O)N1CCC[C@H]1C(=O)N[C@@H](CCCNC(=N)N)C(=O)N[C@H](C(=O)N[C@@H](CC(N)=O)C(=O)N[C@H](C(=O)NCC(=O)N[C@@H](CO)C(=O)NCC(=O)N[C@H](C(=O)N1CCC[C@H]1C(=O)NCCCC[C@H](N)C(=O)NCC(=O)N[C@@H](CS)C(N)=O)[C@@H](C)O)[C@@H](C)O)[C@@H](C)O)[C@@H](C)O [Peptide 2] (SNLST[hhCys(CH2CO)]VLGKLSQELHKLQTYPRTNTGSGTP[εLys]GC-NH2; lactam N-6)
Ki (CT receptor [1]; [5]): 12 nM | IC50 (CT receptor [1]; [6]): 16 nM | IC50 (CT receptor [2]): 18 nM | tissue uptake at […] ([3]; 90 minutes post-injection): 1.6 %ID/g | tissue uptake dose at […] ([3]; GI tract, read-out: GI tract (% ID)): 5.4 %ID | tissue uptake dose at […] ([3]; kidneys, read-out: Kidneys (% ID)): 18 %ID | tissue uptake dose at […] ([3]; liver, read-out: Liver (% ID)): 5.5 %ID | tissue uptake dose at […] ([3]; lung, read-out: Lung (% ID)): 0.24 %ID | Tum:Bld (T-47D tumor): 3.3 | Tum:Con (T-47D tumor): 10

CC(C)C[C@H](NC(=O)[C@H](CCCCN)NC(=O)CNC(=O)[C@H](CC(C)C)NC(=O)[C@@H](NC(=O)[C@@H]1CCCSCC(=O)N[C@@H](CO)C(=O)N[C@@H](CC(N)=O)C(=O)N[C@@H](CC(C)C)C(=O)N[C@@H](CO)C(=O)N[C@@H]([C@@H](C)O)C(=O)N1)C(C)C)C(=O)N[C@@H](CO)C(=O)N[C@@H](CSCC(=O)NCC(=O)NCC(=O)N[C@@H](CS)C(=O)N[C@@H](CCCCN)C(N)=O)C(=O)N[C@@H](CCC(=O)O)C(=O)N[C@@H](CC(C)C)C(=O)N[C@@H](Cc1c[nH]cn1)C(=O)N[C@@H](CCCCN)C(=O)N[C@@H](CC(C)C)C(=O)N[C@@H](CCC(N)=O)C(=O)N[C@H](C(=O)N[C@@H](Cc1ccc(O)cc1)C(=O)N1CCC[C@H]1C(=O)N[C@@H](CCCNC(=N)N)C(=O)N[C@H](C(=O)N[C@@H](CC(N)=O)C(=O)N[C@H](C(=O)NCC(=O)N[C@@H](CO)C(=O)NCC(=O)N[C@H](C(=O)N1CCC[C@H]1C(N)=O)[C@@H](C)O)[C@@H](C)O)[C@@H](C)O)[C@@H](C)O [Peptide 4] (SNLST[hhCys(CH2CO)]VLGKLSC(X1)ELHKLQTYPRTNTGSGTP-NH2; lactam N-6)
IC50 (CT receptor [1]; T-47D cell membranes (Table IV), read-out: IC50 (nM)x): 2.6 nM | PK (min) t½α [4]: 1.4 min | PK (min) t½β [4]: 19 min | tissue uptake dose at […] ([4]; Sprague-Dawley, GI tract, total radioactivity, read-out: GI tract (% ID)): 2 %ID | tissue uptake at […] ([4]; Sprague-Dawley, blood, total radioactivity): 0.027 %ID/g | tissue uptake dose at […] ([4]; Sprague-Dawley, kidneys, total radioactivity, read-out: Kidneys (% ID)): 35 %ID | tissue uptake dose at […] ([4]; Sprague-Dawley, liver, total radioactivity, read-out: Liver (% ID)): 4 %ID | tissue uptake dose at […] ([4]; Sprague-Dawley, lung, total radioactivity, read-out: Lung (% ID)): 0.53 %ID

CC(C)C[C@H](NC(=O)[C@H](CCCCN)NC(=O)CNC(=O)[C@H](CC(C)C)NC(=O)[C@@H](NC(=O)[C@@H]1CCCSCC(=O)N[C@@H](CO)C(=O)N[C@@H](CC(N)=O)C(=O)N[C@@H](CC(C)C)C(=O)N[C@@H](CO)C(=O)N[C@@H]([C@@H](C)O)C(=O)N1)C(C)C)C(=O)N[C@@H](CO)C(=O)N[C@@H](CSCC(=O)NC[C@H](N)C(=O)N[C@@H](CCCCN)C(=O)N[C@@H](CS)C(=O)N[C@@H](CCCCN)C(N)=O)C(=O)N[C@@H](CCC(=O)O)C(=O)N[C@@H](CC(C)C)C(=O)N[C@@H](Cc1c[nH]cn1)C(=O)N[C@@H](CCCCN)C(=O)N[C@@H](CC(C)C)C(=O)N[C@@H](CCC(N)=O)C(=O)N[C@H](C(=O)N[C@@H](Cc1ccc(O)cc1)C(=O)N1CCC[C@H]1C(=O)N[C@@H](CCCNC(=N)N)C(=O)N[C@H](C(=O)N[C@@H](CC(N)=O)C(=O)N[C@H](C(=O)NCC(=O)N[C@@H](CO)C(=O)NCC(=O)N[C@H](C(=O)N1CCC[C@H]1C(N)=O)[C@@H](C)O)[C@@H](C)O)[C@@H](C)O)[C@@H](C)O [Peptide 5] (SNLST[hhCys(CH2CO)]VLGKLSC(X2)ELHKLQTYPRTNTGSGTP-NH2; lactam N-6)
PK (min) t½α [4]: 1.6 min | PK (min) t½β [4]: 17 min | tissue uptake at […] ([4]; in vivo, read-out: Blood (% ID/g)): 0.048 %ID/g | tissue uptake dose at […] ([4]; in vivo, read-out: GI tract (% ID)): 4.5 %ID | tissue uptake dose at […] ([4]; in vivo, read-out: Kidneys (% ID)): 31 %ID | tissue uptake dose at […] ([4]; in vivo, read-out: Liver (% ID)): 5.8 %ID | tissue uptake dose at […] ([4]; in vivo, read-out: Lung (% ID)): 0.56 %ID
